# Tested on: LPA 18:2
# Experiment: Rat whole blood (plasma) LPA assay
# Type: biochemical
# Details: 2 h at 37° C., LPA 18:2 by LC-MS/MS
# Method: Whole blood is collected from rats or mouse by exsanguinations on sodium heparin tube, then after centrifugation at 3000 rpm for 15 min at 4° C., plasma is stored at −80° C. Compounds are diluted in DMSO in concentration dependent manner then 0.5 μL are dispensed into 96-well plate placed in ice. Plasma is defrosted on ice then 49.5 μL of plasma are added into the well containing 0.5 μL of compound (1% DMSO final). Plates are covered with a lid in polypropylene and incubated at +37° C., 5% CO2, for 2 h under gentle shaking (except controls which are stored at −20° C.).
# At the end of the incubation, controls are defrosted in ice and transferred in the incubated plates for LC-MS/MS analysis with a non GLP-validated method. For the analysis, plasma proteins from a 10 μL incubated plates are precipitated with an excess of methanol containing the internal standard, LPA 17:0. After centrifugation, the corresponding supernatant is injected on a C18 column. Analytes are eluted out of the column under isocratic conditions. An API5500 QTRAP mass spectrometer (ABSciex™) is used for the detection of LPA 18:2. No calibration curve is prepared for LPA 18:2, however relative quantities are evaluated based on the peak area.
row,Compound,IC50
1,"CCc1nc2c(F)cc(N3CCN(CC(=O)NC)CC3)cn2c1N(C)c1nc(-c2ccc(F)cc2)c(C#N)s1 [Compound 13, 2-(4-(3-((5-cyano-4-(4-fluorophenyl)thiazol-2-yl)(methyl)amino)-2-ethyl-8-fluoroimidazo[1,2-a]pyridin-6-yl)piperazin-1-yl)-N-methylacetamide]",0.01 to 100 nM
2,"CCc1nc2c(F)cc(N3CCN(CC(=O)N4CC(O)C4)CC3)cn2c1N(C)c1nc(-c2ccc(F)cc2)cs1 [Compound 14, 2-(4-(2-ethyl-8-fluoro-3-((4-(4-fluorophenyl)thiazol-2-yl)(methyl)amino)imidazo[1,2-a]pyridin-6-yl)piperazin-1-yl)-1-(3-hydroxyazetidin-1-yl)ethanone]",0.01 to 100 nM
3,"CCc1nc2cc(F)c(N3CCN(CC(=O)N4CC(O)C4)CC3)cn2c1N(C)c1nc(-c2ccc(F)cc2)c(C#N)s1 [Compound 18, 2-[(2-Ethyl-7-fluoro-6-{4-[2-(3-hydroxy-azetidin-1-yl)-2-oxo-ethyl]-piperazin-1-yl}-imidazo[1,2-a]pyridin-3-yl)-methyl-amino]-4-(4-fluoro-phenyl)-thiazole-5-carbonitrile]",0.01 to 100 nM
4,"CCc1nc2cc(F)c(N3CCN(CC(=O)N4CC(O)C4)CC3)cn2c1N(C)c1nc(-c2ccc(F)cc2)cs1 [Compound 19, 2-[4-(2-Ethyl-7-fluoro-3-{[4-(4-fluoro-phenyl)-thiazol-2-yl]-methyl-amino}-imidazo[1,2-a]pyridin-6-yl)-piperazin-1-yl]-1-(3-hydroxy-azetidin-1-yl)-ethanone]",> 1000 nM
5,"CCc1nc2ccc(N3CCN(CC(=O)N4CC[C@@H](O)C4)CC3)cn2c1N(C)c1nc(-c2ccc(F)cc2)cs1 [Compound 26, (R)-2-(4-(2-ethyl-3-((4-(4-fluorophenyl)thiazol-2-yl)(methyl)amino)imidazo[1,2-a]pyridin-6-yl)piperazin-1-yl)-1-(3-hydroxypyrrolidin-1-yl)ethanone]",> 1000 nM
6,"CCc1nc2ccc(N3CCN(C(=O)C4CCCN4)CC3)cn2c1N(C)c1nc(-c2ccc(F)cc2)cs1 (centres unmarked) [Compound 46, (4-(2-ethyl-3-((4-(4-fluorophenyl)thiazol-2-yl)(methyl)amino)imidazo[1,2-a]pyridin-6-yl)piperazin-1-yl)(pyrrolidin-2-yl)methanone]",> 1000 nM
7,"CCc1nc2ccc(N3CCN(C(=O)C4CCN(C(C)=O)C4)CC3)cn2c1N(C)c1nc(-c2ccc(F)cc2)cs1 (centres unmarked) [Compound 48, 1-{3-[4-(2-Ethyl-3-{[4-(4-fluoro-phenyl)-thiazol-2-yl]-methyl-amino}-imidazo[1,2-a]pyridin-6-yl)-piperazine-1-carbonyl]-pyrrolidin-1-yl}-ethanone]",> 1000 nM
8,"CCc1nc2ccc(N3CCN(C(=O)CCCN(C)C)CC3)cn2c1N(C)c1nc(-c2ccc(F)cc2)cs1 [Compound 53, 4-(dimethylamino)-1-(4-(2-ethyl-3-((4-(4-fluorophenyl)thiazol-2-yl)(methyl)amino)imidazo[1,2-a]pyridin-6-yl)piperazin-1-yl)butan-1-one]",> 1000 nM
9,"CCc1nc2ccc(N3CCN(S(C)(=O)=O)CC3)cn2c1N(C)c1nc(-c2ccc(F)cc2)cs1 [Compound 54, N-(2-ethyl-6-(4-(methylsulfonyl)piperazin-1-yl)imidazo[1,2-a]pyridin-3-yl)-4-(4-fluorophenyl)-N-methylthiazol-2-amine]",> 1000 nM
10,"CCc1nc2ccc(N3CCN(S(=O)(=O)CCCN(C)C)CC3)cn2c1N(C)c1nc(-c2ccc(F)cc2)cs1 [Compound 56, N-(6-(4-(3-(dimethylamino)propylsulfonyl)piperazin-1-yl)-2-ethylimidazo[1,2-a]pyridin-3-yl)-4-(4-fluorophenyl)-N-methylthiazol-2-amine]",> 1000 nM
11,"CCc1nc2ccc(N3CCN(S(=O)(=O)CCCO)CC3)cn2c1N(C)c1nc(-c2ccc(F)cc2)cs1 [Compound 58, 3-(4-(2-ethyl-3-((4-(4-fluorophenyl)thiazol-2-yl)(methyl)amino)imidazo[1,2-a]pyridin-6-yl)piperazin-1-ylsulfonyl)propan-1-ol]",> 1000 nM
12,"CCc1nc2ccc(C3=CCN(S(C)(=O)=O)CC3)cn2c1N(C)c1nc(-c2ccc(F)cc2)cs1 [Compound 66, N-(2-ethyl-6-(1-(methylsulfonyl)-1,2,3,6-tetrahydropyridin-4-yl)imidazo[1,2-a]pyridin-3-yl)-4-(4-fluorophenyl)-N-methylthiazol-2-amine]",> 1000 nM
13,"CCc1nc2ccc(C3=CCN(S(C)(=O)=O)CC3)cn2c1N(C)c1nc(-c2ccc(OC(F)(F)F)cc2)cs1 [Compound 72, N-(2-ethyl-6-(1-(methylsulfonyl)-1,2,3,6-tetrahydropyridin-4-yl)imidazo[1,2-a]pyridin-3-yl)-N-methyl-4-(4-(trifluoromethoxy)phenyl)thiazol-2-amine]",> 1000 nM
14,"CCc1nc2ccc(C3=CCN(S(=O)(=O)CCCO)CC3)cn2c1N(C)c1nc(-c2ccc(F)cc2)cs1 [Compound 75, 3-(4-(2-ethyl-3-((4-(4-fluorophenyl)thiazol-2-yl)(methyl)amino)imidazo[1,2-a]pyridin-6-yl)-5,6-dihydropyridin-1(2H)-ylsulfonyl)propan-1-ol]",> 1000 nM
15,CCc1nc2ccc(C3CCN(S(=O)(=O)CCN4CCOCC4)CC3)cn2c1N(C)c1nc(-c2ccc(F)cc2)cs1 [Compound 91],> 1000 nM
16,"CCc1nc2ccc(C3CCN(S(C)(=O)=O)CC3)cn2c1N(C)c1nc(-c2ccc(F)cc2C#N)cs1 [Compound 96, 2-(2-((2-ethyl-6-(1-(methylsulfonyl)piperidin-4-yl)imidazo[1,2-a]pyridin-3-yl)(methyl)amino)thiazol-4-yl)-5-fluorobenzonitrile]",0.01 to 100 nM
17,"CCc1nc2ccc(C3CCN(CC(=O)N4CCCC4)CC3)cn2c1N(C)c1nc(-c2ccc(F)cc2)cs1 [Compound 115, 2-(4-(2-ethyl-3-((4-(4-fluorophenyl)thiazol-2-yl)(methyl)amino)imidazo[1,2-a]pyridin-6-yl)piperidin-1-yl)-1-(pyrrolidin-1-yl)ethanone]",0.01 to 100 nM
18,"CCc1nc2ccc(C3CCN(S(C)(=O)=O)CC3)cn2c1N(C)c1nc(-c2ccc(F)cc2)c(C#N)s1 [Compound 136, 2-((2-ethyl-6-(1-(methylsulfonyl)piperidin-4-yl)imidazo[1,2-a]pyridin-3-yl)(methyl)amino)-4-(4-fluorophenyl)thiazole-5-carbonitrile]",0.01 to 100 nM
19,"CCc1nc2ccc(N3CCN(CC(=O)N4CC(O)C4)CC3)cn2c1N(C)c1nc(-c2ccc(F)cc2)c(C#N)s1 [Compound 138, 2-((2-ethyl-6-(4-(2-(3-hydroxyazetidin-1-yl)-2-oxoethyl)piperazin-1-yl)imidazo[1,2-a]pyridin-3-yl)(methyl)amino)-4-(4-fluorophenyl)thiazole-5-carbonitrile]",0.01 to 100 nM
20,"CCc1nc2ccc(N3CCN(CC(=O)N(C)C)CC3)cn2c1N(C)c1nc(-c2ccc(F)cc2)c(C#N)s1 [Compound 140, 2-(4-(3-((5-cyano-4-(4-fluorophenyl)thiazol-2-yl)(methyl)amino)-2-ethylimidazo[1,2-a]pyridin-6-yl)piperazin-1-yl)-N,N-dimethylacetamide]",0.01 to 100 nM
21,"CCc1nc2ccc(C3CCN(CC(=O)N4CC(O)C4)CC3)cn2c1N(C)c1nc(-c2ccc(F)cc2)c(C#N)s1 [Compound 141, 2-((2-ethyl-6-(1-(2-(3-hydroxyazetidin-1-yl)-2-oxoethyl)piperidin-4-yl)imidazo[1,2-a]pyridin-3-yl)(methyl)amino)-4-(4-fluorophenyl)thiazole-5-carbonitrile]",0.01 to 100 nM
22,"CCc1nc2ccc(C3CCN(CC(=O)N4CC[C@@H](O)C4)CC3)cn2c1N(C)c1nc(-c2ccc(F)cc2)c(C#N)s1 [Compound 142, (R)-2-((2-ethyl-6-(1-(2-(3-hydroxypyrrolidin-1-yl)-2-oxoethyl)piperidin-4-yl)imidazo[1,2-a]pyridin-3-yl)(methyl)amino)-4-(4-fluorophenyl)thiazole-5-carbonitrile]",0.01 to 100 nM
23,"CCc1nc2ccc(C3CCN(CC(=O)N4CC[C@H](O)C4)CC3)cn2c1N(C)c1nc(-c2ccc(F)cc2)c(C#N)s1 [Compound 143, (S)-2-((2-ethyl-6-(1-(2-(3-hydroxypyrrolidin-1-yl)-2-oxoethyl)piperidin-4-yl)imidazo[1,2-a]pyridin-3-yl)(methyl)amino)-4-(4-fluorophenyl)thiazole-5-carbonitrile]",0.01 to 100 nM
24,"CCc1nc2ccc(C3CCN(CC(=O)N4CC(CO)C4)CC3)cn2c1N(C)c1nc(-c2ccc(F)cc2)c(C#N)s1 [Compound 144, 2-((2-ethyl-6-(1-(2-(3-(hydroxymethyl)azetidin-1-yl)-2-oxoethyl)piperidin-4-yl)imidazo[1,2-a]pyridin-3-yl)(methyl)amino)-4-(4-fluorophenyl)thiazole-5-carbonitrile]",0.01 to 100 nM
25,"CCc1nc2ccc(C3CCN(CC(=O)N(C)C)CC3)cn2c1N(C)c1nc(-c2ccc(F)cc2)c(C#N)s1 [Compound 145, 2-(4-(3-((5-cyano-4-(4-fluorophenyl)thiazol-2-yl)(methyl)amino)-2-ethylimidazo[1,2-a]pyridin-6-yl)piperidin-1-yl)-N,N-dimethylacetamide]",0.01 to 100 nM
26,"CCc1nc2ccc(C3CCN(S(=O)(=O)CCCN(C)C)CC3)cn2c1N(C)c1nc(-c2ccc(F)cc2)c(CO)s1 [Compound 149, (2-((6-(1-(3-(dimethylamino)propylsulfonyl)piperidin-4-yl)-2-ethylimidazo[1,2-a]pyridin-3-yl)(methyl)amino)-4-(4-fluorophenyl)thiazol-5-yl)]",> 1000 nM

# Source: patent US11072611B2, “Compounds and pharmaceutical compositions thereof for the treatment of inflammatory disorders” (Galapagos NV, priority 2013, dated 2021)
